In patent US20180221457A1 (VAL-CHUM, LIMITED PARTNERSHIP, priority 2015, published 2018):

Tests used:
human G3PP (hG3PP) = target: T1, human G3PP (hG3PP) (Homo sapiens, UniProt A6NDG6); assay: Effect of organic acids on G3PP activity in hG3PP-overexpressing 293T cell extracts; type: biochemical; details: 10 mM Gro3P substrate, 2 or 10 mM test organic acid, 30 min at 30° C.
T1 construct: expressed in transfected cells; host or cells: 293T cells (whole cell extract)
T1 sequence (A6NDG6 1-321): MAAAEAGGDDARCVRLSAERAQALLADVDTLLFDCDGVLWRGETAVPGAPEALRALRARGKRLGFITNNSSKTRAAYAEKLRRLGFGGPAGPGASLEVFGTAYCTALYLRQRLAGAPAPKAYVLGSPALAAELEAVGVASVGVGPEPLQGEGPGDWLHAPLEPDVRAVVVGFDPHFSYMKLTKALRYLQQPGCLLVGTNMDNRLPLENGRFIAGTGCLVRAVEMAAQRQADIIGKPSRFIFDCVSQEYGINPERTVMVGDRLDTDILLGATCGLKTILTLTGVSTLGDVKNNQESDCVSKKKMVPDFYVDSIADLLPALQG
Method: In order to examine the effect of various compounds on G3PP activity, human G3PP (hG3PP) was overexpressed in 293T cells, using a plasmid vector. Simultaneously control cells received GFP (Green Fluorescent Protein) expression plasmid. After 72 h following transfection, cells were harvested and whole cell extracts were prepared in Krebs Ringer Buffer (KRBH). G3PP was assayed using […] G3PP cell extract protein (or GFP control extract) with 10 mM Gro3P substrate and 2 or 10 mM test organic acid (R-hydroxy butyric acid, glycolate, succinate, citrate, malate, fumarate, lactate and malonate). Incubations were for 30 min at 30° C. Then the reactions were stopped by adding perchloric acid and glycerol released was measured using Γ-^32P-labeled ATP plus glycerokinase. The amount of glycerol release is proportional to the activity of hG3PP in the cell extracts.

INS832/13 β-cells = assay: Free fatty acids and glycerol release from INS832/13 cells; type: cell-based, rat; details: 50 μM orlistat, 2 h
Method: (§1) Free fatty acids and glycerol release. For FFA determinations, isolated rat islets were pre-incubated for 1 h in KRBH containing 2 mM glutamine and at 4 mM glucose, 50 μM carnitine and then incubated for 2 h at 4, 10, 16 and 25 mM glucose. The low and high glucose concentrations were 2 and 10 mM, respectively, when INS832/13 cells were used. Incubations were done without and with the panlipase inhibitor, orlistat. Cells and islets were harvested after incubations for protein extraction. FFA released into the medium were extracted by a modified Dole-Meinertz extraction procedure (Puttmann et al., 1993). Briefly, the media (0.5 ml), in Pyrex glass tubes, were mixed with the internal standard [^2H31]-palmitic acid and extracted with 2.5 ml of a solvent mixture containing isopropanol-n-heptane-2M phosphoric acid (40:10:1, v/v). […] The dried fatty acids were derivatized with phenacylbromide and quantified by reverse phase HPLC (Mehta et al., 1998) using a Zorbax Eclipse plus XDB analytical C18 column (4.6×250 mm; 5 μm; Agilent Technology). FFA were eluted using methanol/water (92.5:7.5, v/v) at a flow rate of 1.5 ml/min and absorbance of eluting FFA-phenacyl derivatives was measured at 242 and 254 nm. […] Glycerol release was determined by a radiometric glycerol assay (Bradley and Kaslow, 1989) using [Γ-^32P]ATP and glycerokinase.

rat islets = assay: Free fatty acids and glycerol release from isolated rat islets; type: cell-based; details: 50 μM orlistat, 2 h
Method: Islet and hepatocyte isolation. Pancreatic islets were isolated from rats and mice (Peyot et al., 2009). Isolated islets were cultured overnight at 37° C. in complete RPMI 1640 medium. Hepatocytes were isolated from rats by in situ collagenase perfusion and were seeded in DMEM complete medium (Merlen et al., 2014).
as §1, with “v/v). After thorough mixing by vortex, the tubes were kept in a bath sonicator (Branson Ultrasonic) and sonicated for 2 min with 30 s intervals, avoiding sample heating. After rigorous mixing by vortex, the tubes were let stand at room temperature for 10 min, and then heptane (1 ml) and water (1.5 ml) were added and the tubes were thoroughly mixed by vortex followed by sonication for 1 min. Then the tubes were centrifuged at 1000×g for 10 min at 4° C.” for “v/v).”, “glycerokinase. […]” for “glycerokinase.”

[1] = substrate: O=P(O)(O)OCC(O)CO; assay: purified protein, by the assay type; details: other: substrate glycerol-3-phosphate; pH 7.5

Question: How did the “G3PP activity (glycerol released)” value (human G3PP (hG3PP)) turn out when `O=C(O)CCC(=O)O` [succinate] was run?
Answer: Its value is “marked stimulation”.

Question: With `O=C(O)CC(=O)O` [malonate] as the molecule, how does the “G3PP activity (glycerol released)” value (human G3PP (hG3PP)) read?
Answer: The value was “do not activate similarly”.

Question: With `CCCCCCCCCCC[C@@H](C[C@@H]1OC(=O)[C@H]1CCCCCC)OC(=O)[C@H](CC(C)C)NC=O` [orlistat] as the molecule, how does the glycerol release (INS832/13 β-cells; elevated glucose concentration) read?
Answer: Its glycerol release is “not inhibited”.

Question: What about the “FFA release (lipolysis)” value (INS832/13 β-cells; high glucose concentrations) of the same molecule?
Answer: The value was “reduction”.

Question: And the glycerol release (rat islets; elevated glucose concentration)?
Answer: The glycerol release was “not inhibited”.

Question: What about the “FFA release (lipolysis)” value (rat islets; high glucose concentrations) of the same molecule?
Answer: Its value is “reduction”.

Question: And the glycerol release (rat islets; medium concentration of glucose (10 mM))?
Answer: The glycerol release was “moderate inhibition”.

Question: How did the “G3PP activity (glycerol released)” value (human G3PP (hG3PP)) turn out when `CC(O)CC(=O)O` (stereo not drawn) [beta-hydroxybutyrate] was run?
Answer: The value was “stimulated”.

Question: With `O=C(O)/C=C/C(=O)O` [fumarate] as the molecule, how does the “G3PP activity (glycerol released)” value (human G3PP (hG3PP)) read?
Answer: The value was “do not activate similarly”.

Question: How did the “G3PP activity (glycerol released)” value (human G3PP (hG3PP)) turn out when `O=C(O)CC(O)C(=O)O` (stereo not drawn) [malate] was run?
Answer: The value was “do not activate similarly”.

B1: Recombinant human PGP (Homo sapiens) (protein)
chain: T1 sequence (A6NDG6 1-321)
Question: How did the Km [1] turn out when B1 was run?
Answer: The Km was 1500 µM.

Question: And the kcat [1]?
Answer: The kcat was 0.1 s⁻¹.
